Experimental data published in patent US3932425A, “Benzospiran derivatives” (The Upjohn Company, priority 1974, dated 1976).

Columns and labels:
Type in all cases: in vivo
mice [1] = experiment: Chimney test (tranquilizing effect; ability of mice to back up and out of a vertical glass cylinder within 30 seconds); details: Mus musculus, ip, intraperitoneal injection, 50 percent of the mice failed within 30 seconds, read-out: ED50, Ch (chimney test)
Description: (§1) The free bases and acid addition salts of the novel compounds of Formula I are useful as central nervous system (CNS) depressants when administered to humans and animals.
(§2) Tranquilizing effects of compounds of this invention are shown by the following tests in mice:
Chimney test: [Med. Exp. 4, 145 (1961)]: The test determines the ability of mice to back up and out of a verticle glass cylinder within 30 seconds. At the effective dosage, 50 percent of the mice failed doing it.

mice [2] = experiment: Dish test (tranquilizing effect; mice remaining in Petri dish for more than 3 minutes); details: Mus musculus, ip, 0.05 h, intraperitoneal injection, 50 percent of the mice remain in the dish more than 3 minutes, read-out: ED50, D (dish test)
Procedure: as §1, §2
Dish test: Mice in Petri dishes (10 cm. diameter, 5 cm. high, partially embedded in wood shavings), climb out in a very short time, when not treated. Mice remaining in the dish for more than 3 minutes indicates tranquilization. ED50 equals the dose of test compound at which 50 percent of the mice remain in the dish.

mice [3] = experiment: Nicotine antagonism test (nicotine salicylate 2 mg./kg. overstimulation, convulsions, tonic extensor fits, death); details: Mus musculus, ip, intraperitoneal injection 30 minutes before nicotine salicylate 2 mg./kg., (3) = death, read-out: ED50, Ni (nicotine antagonism (3) test)
Procedure: as §2
Nicotine antagonism test: Mice in a group of 6 are injected with the test compound. Thirty minutes later the mice including control (untreated) mice are injected with nicotine salicylate (2 mg./kg.). The control mice show overstimulation, i.e., (1) running convulsions followed by (2) tonic extensor fits; followed by (3) death.
Ni = nicotine antagonism (3) test

mice [4] = experiment: Pedestal test (tranquilizing effect; mice staying on the pedestal for more than 1 minute); details: Mus musculus, ip, 1 min, intraperitoneal injection, stay on the pedestal for more than 1 minute, read-out: ED50, P (pedestal test)
Procedure: as §1, §2
Pedestal test: The untreated mouse leaves a standard pedestal in less than a minute to climb back to the floor of the standard mouse box. Tranquilized mice will stay on the pedestal for more than 1 minute.

rats = experiment: Hypotensive activity (manner of Weeks and Jones, Proc. Soc. Exp. Biol. and Med. 104, 646 (1960)); details: Rattus norvegicus; oral administration to rats; read-out: MED100 (minimal effective dose), hypotensive
Description: The free bases and pharmacologically acceptable acid addition salts of the compounds of Formula I (a, b and c) are also useful in lowering blood pressure when administered to humans and animals. This activity makes them useful in the treatment of essential hypertension. […] Exp. Biol. and Med. 104, 646 (1960). The following compounds typical of this invention have (by oral administration to rats) MED100 (minimal effective dose) as shown in the table below.

`Cl.O=C(CCCNC1CCC2(CCCc3ccccc32)CC1)c1ccc(F)cc1` (centres unmarked) [4'-Fluoro-4-[3',4'-dihydrospiro[cyclohexane-1,1'(2'H)-naphthalen]-4-ylamino]butyrophenone hydrochloride] was tested, and the ED50 (mice [1]) was 25 mg/kg, the ED50 (mice [2]) was 10 mg/kg and the ED50 (mice [3]) was 5 mg/kg. For the same compound, the ED50 (mice [4]) was 16 mg/kg.
`Cl.O=C(CCCNC1CCC2(CC1)Cc1ccccc1C2O)c1ccc(F)cc1` (centres unmarked) [4'-Fluoro-4-[[1'-hydroxyspiro[cyclohexane-1,2'-indan]-4-yl]amino]butyrophenone hydrochloride] gave a minimal effective dose (rats) of 50 mg/kg.
Work on `Cl.O=C(CCCNC1CCC2(CCc3ccccc3C2)CC1)c1ccc(F)cc1` (centres unmarked) [4'-Fluoro-4-[[3',4'-dihydrospiro[cyclohexane-1,2'(1'H)-naphthalen]-4-yl]amino]butyrophenone hydrochloride] yielded an ED50 (mice [1]) of 9.9 mg/kg, an ED50 (mice [2]) of 9.9 mg/kg and an ED50 (mice [3]) of 7 mg/kg. The ED50 (mice [4]) was 12.5 mg/kg.
For `Cl.O=C(CCCNC1CCC2(CC1)Cc1ccccc1C2)c1ccc(F)cc1` [4'-Fluoro-4-[[spiro[cyclohexane-1,2'-indan]-4-yl]amino]butyrophenone hydrochloride], the minimal effective dose (rats) was 50 mg/kg.
`CN(CCCC(=O)c1ccc(F)cc1)C1CCC2(CC1)Cc1ccccc1C2.Cl` [4'-Fluoro-4-[methyl[spiro[cyclohexane-1,2'-indan]-4-yl]amino]butyrophenone hydrochloride] was tested, and the ED50 (mice [1]) was 16 mg/kg, the ED50 (mice [2]) was 3.6 mg/kg and the ED50 (mice [3]) was 4 mg/kg. The ED50 (mice [4]) was 9 mg/kg.
